Results from patent publication US10221163B2 (priority 2015, dated 2019).
Where two headings read alike, the source gives them in different places.

Columns and labels:
[1] = biological target: VIM-1 (Pseudomonas aeruginosa (strain ATCC 15692 / DSM 22644 / CIP 104116 / JCM 14847 / LMG 12228 / 1C / PRS 101 / PAO1), UniProt A0A0F7KYQ8); assay: biochemical; settings: CCF2-FA substrate, 30 pM enzyme, 2 hours at 25° C.
Protocol: Enzyme Activity: Determination of IC50
The Class B enzyme activities were measured in the presence of the test inhibitor in a fluorescence assay against a commercially available substrate consisting of a cephalosporin core linking 7-hydroxycoumarin to fluorescein (CCF2-FA). […] In a 384-well microplate, the test inhibitor was incubated with the metallo-β-lactamase enzyme and the substrate for 2 hours at 25° C. […] The IC50 value was determined from semi-logarithmic plots of enzyme inhibition versus inhibitor concentration, with a curve generated using a 4-parameter fit.

[2] = biological target: NDM-1 (Klebsiella pneumoniae, UniProt C7C422); assay: biochemical; assay type: biochemical; settings: fluorescence assay, CCF2-FA substrate, 1 pM enzyme, 2 hours at 25° C.; read-out: NDM-1 IC50
NDM-1, sequence (C7C422 whole entry, looked up, species assumed): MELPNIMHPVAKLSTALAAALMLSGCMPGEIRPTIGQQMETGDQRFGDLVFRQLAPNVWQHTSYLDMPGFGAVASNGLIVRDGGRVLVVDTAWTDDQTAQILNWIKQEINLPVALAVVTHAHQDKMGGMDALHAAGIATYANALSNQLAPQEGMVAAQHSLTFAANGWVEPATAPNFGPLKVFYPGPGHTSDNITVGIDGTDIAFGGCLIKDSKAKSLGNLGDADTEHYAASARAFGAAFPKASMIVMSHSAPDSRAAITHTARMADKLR
How it was run: (§1)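 Two-hour, 25° C incubation of enzyme with inhibitor and CCF2-FA (7-hydroxycoumarin–cephalosporin–fluorescein). Fluorescence read-out; IC50 via 4-parameter fit.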

[3] = biological target: IMP-1 (Serratia marcescens, UniProt P52699); assay: biochemical; assay type: biochemical; settings: CCF2-FA substrate, 2 pM enzyme, 2 hours at 25° C.
IMP-1, sequence (P52699 whole entry, looked up, species assumed): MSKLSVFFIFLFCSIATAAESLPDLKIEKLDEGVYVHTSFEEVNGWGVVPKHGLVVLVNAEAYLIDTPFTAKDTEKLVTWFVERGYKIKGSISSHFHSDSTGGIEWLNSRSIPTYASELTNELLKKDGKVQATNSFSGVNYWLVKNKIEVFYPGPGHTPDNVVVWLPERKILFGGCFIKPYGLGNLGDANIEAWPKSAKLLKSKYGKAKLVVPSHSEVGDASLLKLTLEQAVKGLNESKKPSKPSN
How it was run: as §1

[4] = tested on: Klebsiella pneumoniae expressing VIM-1 (IHMA599644); assay type: cell-based; settings: for Klebsiella pneumoniae expressing VIM-1 (IHMA599644) MITC95: with imipenem 1 μg/ml, 95% inhibition of bacterial growth; for Klebsiella pneumoniae MITC95: VIM-1 strain IHMA599644, with imipenem 1 μg/ml, 95% inhibition of growth
How it was run: (§2)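 Clinical strains grown overnight on blood agar at 35°C, colonies suspended in saline, diluted 1:100 into 1.1×CAMHB. Test compound titrated with imipenem at 1 μg/ml; incubated 22–24 h at 35°C, growth read by absorbance.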

[5] = tested on: Escherichia coli expressing NDM-1 (CLB30005, CLB30016); assay type: cell-based; settings: with imipenem 1 μg/ml; for Escherichia coli expressing NDM-1 (CLB30016) MITC95: 95% inhibition of bacterial growth; for Escherichia coli MITC95: NDM-1 strain, 95% inhibition of growth
How it was run: as §2

[6] = tested on: Serratia marcescens expressing IMP-1 (CL5741); assay type: cell-based; settings: for Serratia marcescens expressing IMP-1 (CL5741) MITC95: with imipenem 1 μg/ml, 95% inhibition of bacterial growth; for Serratia marcescens MITC95: IMP-1 strain CL5741, with imipenem 1 μg/ml, 95% inhibition of growth
How it was run: as §2

[7] = tested on: Pseudomonas aeruginosa efflux− (MB9799), IMP-1; assay type: cell-based; settings: C, D serine β-lactamase inhibitor closely related to relebactam; for P. aeruginosa expressing IMP-1, efflux − (MB9799) MITC95: concentration restoring susceptibility to imipenem at 2 μg/mL in the presence of a class A; for Concentration of metallo-β-lactamase inhibitor which restores susceptibility of efflux − (MB9799) strain to imipenem: imipenem at 2 μg/mL, in the presence of a class A
How it was run: (§3)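 P. aeruginosa PAO1-derived IMP-1 strains, efflux+ MB9798 and efflux− MB9799, tested by standard microbroth MIC with imipenem and/or ceftazidime fixed, usually at CLSI breakpoint, plus fixed class A/C β-lactamase inhibitor against AmpC. Inhibitor titrated; concentration restoring susceptibility recorded; MB9798/MB9799 fold difference indicates efflux.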

[8] = tested on: Pseudomonas aeruginosa efflux+ (MB9798), IMP-1; assay type: cell-based; parameters: Concentration of metallo-β-lactamase inhibitor which restores susceptibility of efflux + (MB9798) strain to imipenem: unit not given here; settings: C, D serine β-lactamase inhibitor closely related to relebactam; for P. aeruginosa expressing IMP-1, efflux + (MB9798) MITC95: concentration restoring susceptibility to imipenem at 2 μg/mL in the presence of a class A; for Concentration of metallo-β-lactamase inhibitor which restores susceptibility of efflux + (MB9798) strain to imipenem: imipenem at 2 μg/mL, in the presence of a class A
How it was run: as §3

[9] = fluorescence assay, read-out: VIM-1 IC50
[10] = fluorescence assay, read-out: IMP-1 IC50

| Compound | IC50 ([1]; VIM-1 IC50, fluorescence assay) [nM] | IC50 [2] [nM] | IC50 ([3]; IMP-1 IC50, fluorescence assay) [nM] | Klebsiella pneumoniae expressing VIM-1 (IHMA599644) MITC95 [4] [µM] | Escherichia coli expressing NDM-1 (CLB30016) MITC95 [5] [µM] | Serratia marcescens expressing IMP-1 (CL5741) MITC95 [6] [µM] | IC50 [1, 9] [nM] | P. aeruginosa expressing IMP-1, efflux − (MB9799) MITC95 [7] [µM] | P. aeruginosa expressing IMP-1, efflux + (MB9798) MITC95 [8] [µM] | IC50 [3, 10] [nM] | Klebsiella pneumoniae MITC95 [4] [µM] | Escherichia coli MITC95 [5] [µM] | Serratia marcescens MITC95 [6] [µM] | Concentration of metallo-β-lactamase inhibitor which restores susceptibility of efflux − (MB9799) strain to imipenem [7] | Concentration of metallo-β-lactamase inhibitor which restores susceptibility of efflux + (MB9798) strain to imipenem [8] |
| --- | --- | --- | --- | --- | --- | --- | --- | --- | --- | --- | --- | --- | --- | --- | --- |
| C[C@H](CN)NS(=O)(=O)c1ccc(-c2cccc3sc(N)nc23)c(-c2nnn[nH]2)c1S(N)(=O)=O [Example 72, (R)-4-(2-aminobenzo[d]thiazol-4-yl)-N^1-(1-aminopropan-2-yl)-3-(1H-tetrazol-5-yl)benzene-1,2-disulfonamide] | 0.26 | 0.02 | 0.27 | 3.125 | 1.563 | 1.563 | – | – | – | – | – | – | – | – | – |
| Nc1nc2c(-c3ccc(S(=O)(=O)N4CC5C(N)C5C4)c(S(N)(=O)=O)c3-c3nnn[nH]3)cccc2s1.O=C(O)C(F)(F)F [Example 113, (1R,5S,6s)-3-((4-(2-aminobenzo[d]thiazol-4-yl)-2-sulfamoyl-3-(1H-tetrazol-5-yl)phenyl)sulfonyl)-3-azabicyclo[3.1.0]hexan-6-aminium 2,2,2-trifluoroacetate] | – | 0.646 | – | 3.125 | 1.563 | 3.125 | 0.773 | 1.563 | 1.563 | – | – | – | – | – | – |
| CC(C)(CN)NS(=O)(=O)c1ccc(-c2cccc3sc(N)nc23)c(-c2nnn[nH]2)c1S(N)(=O)=O.O=CO [Example 117, 2-(4-(2-aminobenzo[d]thiazol-4-yl)-2-sulfamoyl-3-(1H-tetrazol-5-yl)phenylsulfonamido)-2-methylpropan-1-aminium formate] | – | 0.0126 | – | 3.125 | 6.25 | 3.125 | 0.183 | 1.563 | 1.563 | – | – | – | – | – | – |
| Nc1nc2c(-c3ccc(S(=O)(=O)NCC(N)C(F)F)c(S(N)(=O)=O)c3-c3nnn[nH]3)cccc2s1.O=CO (stereo not drawn) [Example 118, 3-(4-(2-aminobenzo[d]thiazol-4-yl)-2-sulfamoyl-3-(1H-tetrazol-5-yl)phenylsulfonamido)-1,1-difluoropropan-2-aminium formate] | 0.289 | 0.026 | – | 12.5 | 25 | 6.25 | – | 3.125 | 12.5 | – | – | – | – | – | – |
| Nc1nc2c(-c3ccc(S(=O)(=O)NC4C[C@@H]5CN[C@H]4C5)c(S(N)(=O)=O)c3-c3nnn[nH]3)cccc2s1.O=CO (stereo partly drawn) [Example 119, 4-(2-aminobenzo[d[thiazol-4-yl)-N1-((1S,4R)-2-azabicyclo[2.2.1]heptan-6-yl)-3-(1H-tetrazol-5-yl)benzene-1,2-disulfonamide, formate salt] | – | 0.0407 | – | – | – | – | 0.254 | – | – | 0.223 | – | – | – | – | – |
| Nc1nc2c(-c3ccc(S(=O)(=O)NC[C@@H]4CCCN4)c(S(N)(=O)=O)c3-c3nnn[nH]3)cccc2s1.O=CO [Example 125, (S)-2-((4-(2-aminobenzo[d]thiazol-4-yl)-2-sulfamoyl-3-(1H-tetrazol-5-yl)phenylsulfonamido)methyl)pyrrolidin-1-ium formate] | – | 0.0465 | – | 3.125 | 1.563 | 1.563 | 0.196 | 1.563 | 0.7813 | – | – | – | – | – | – |
| Nc1nc2c(-c3ccc(S(=O)(=O)NC[C@H]4CCCN4)c(S(N)(=O)=O)c3-c3nnn[nH]3)cccc2s1.O=CO [Example 126, (R)-2-((4-(2-aminobenzo[d]thiazol-4-yl)-2-sulfamoyl-3-(1H-tetrazol-5-yl)phenylsulfonamido)methyl)pyrrolidin-1-ium formate] | – | 0.0569 | – | 3.125 | 1.563 | 1.563 | 0.18 | 1.563 | 0.7813 | – | – | – | – | – | – |
| NC[C@H]1CCN(S(=O)(=O)c2ccc(-c3cccc4[nH]c(N)nc34)c(-c3nn[nH]n3)c2S(N)(=O)=O)C1 [Example 253, (R)-3-(2-amino-1H-benzo[d]imidazol-4-yl)-6-((3-(aminomethyl)pyrrolidin-1-yl)sulfonyl)-2-(2H-tetrazol-5-yl)benzenesulfonamide] | – | 0.884 | – | – | – | – | 1.53 | 0.7813 | 1.563 | 2.68 | 1.563 | 1.563 | 0.7813 | – | – |
| NCc1nc2c(-c3ccc(S(=O)(=O)NC[C@@H]4CNCCN4)c(S(N)(=O)=O)c3-c3nn[nH]n3)cccc2[nH]1 [Example 311, (S)-4-(2-(aminomethyl)-1H-benzo[d]imidazol-4-yl)-N-(piperazin-2-ylmethyl)-3-(2H-tetrazol-5-yl)benzene-1,2-disulfonamide] | – | 0.0986 | – | – | – | – | 0.11 | 1.563 | 1.563 | – | 3.125 | 1.563 | 1.563 | – | – |
| NCCNS(=O)(=O)c1ccc(-c2cccc(C(=O)N[C@@H]3CNC[C@H]3O)c2)c(-c2nn[nH]n2)c1S(N)(=O)=O [Example 344] | – | 1.39 | – | – | – | – | 0.52 | 0.7813 | 1.563 | 4.26 | 1.563 | 0.7813 | 1.563 | – | – |
| Nc1nc2c(-c3ccc(S(=O)(=O)N[C@@H]4C[C@H]4N)c(S(N)(=O)=O)c3-c3nn[nH]n3)cccc2s1 [Example 388, 4-(2-amino-1,3-benzothiazol-4-yl)-N^1-[(1R,2R)-2-aminocyclopropyl]-3-(2H-tetrazol-5-yl)benzene-1,2-disulfonamide] | 0.375 | 0.0884 | – | – | – | – | – | 3.125 | 1.563 | – | 6.25 | 3.125 | 3.125 | – | – |
| Nc1ccc(-c2ccc(S(=O)(=O)N[C@H]3CNC[C@H]3N)c(S(N)(=O)=O)c2-c2nn[nH]n2)cn1 [Example 413] | – | 0.248 | – | – | – | – | 0.3 | – | – | 0.8 | 3.125 | 0.7813 | 1.563 | 1.563 | 1.563 |
| Nc1ccc(-c2ccc(S(=O)(=O)N[C@@H]3CNC[C@@H]3N)c(S(N)(=O)=O)c2-c2nn[nH]n2)cn1 [Example 414] | – | 0.329 | – | – | – | – | 0.347 | – | – | 0.786 | 3.125 | 0.3906 | 0.7813 | 1.563 | 1.563 |
